Holding throughout (assay type): cell-based, human
The test system of experiment [1] is MG-63 cells. As to the kind of experiment: Cell viability analysis (MTT), cell number of co-cultured MG-63 cells. As to the method: 0.0001 g, 0.0005 g, 0.005 g, and 0.05 g of VK2 was fine weighed and sterilized by UV light in a sterile hood overnight, then added into 50 ml centrifuge tubes. 50 ml of H-DMEM containing 10% FBS was then added to prepare cell culture medium with different VK2 concentrations: 0 mg/mL, 0.002 mg/mL, 0.01 mg/mL, 0.1 mg/mL, and 1 mg/mL. H-DMEM containing 10% FBS was used to adjust the concentration of MG-63 cell solution to 1×10^4 cells/ml. 1 ml/well of cell solution was seeded to a 24-well plate and incubated in an incubator for 1 day to make cells adhere. Then, the culture medium was removed, 1 ml/well of cell culture medium with different VK2 concentration were added respectively and incubated for 1, 3, and 7 days. Cell viability analysis (MTT) and alkaline phosphatase activity assay (ALP) were conducted. Cell morphology was observed by an inverted microscope and recorded in photographs. 0.01 g of 0%, 0.01%, 0.1%, and 1.0% VK2MS was fine weighed and sterilized by UV light in a sterile hood overnight, then added into 50 ml centrifuge tubes. 50 ml of H-DMEM containing 10% FBS was then added to prepare cell culture medium with different VK2 concentrations. H-DMEM containing 10% FBS was used to adjust the concentration of MG-63 cell solution to 1×10^4 cells/ml. 1 ml/well of cell solution was seeded to a 24-well plate and incubated in an incubator for 1 day to make the cells adhere. Then, the culture medium was removed, 1 ml/well of cell culture medium with different VK2 concentration were added respectively and incubated for 1, 3, and 7 days. In addition, the cell culture medium without microspheres (MS) was added 1 ml/well and incubated for 1, 3, and 7 days as control groups. Subsequently, cell viability analyse (MTT) and alkaline phosphatase activity assays (ALP) were conducted. Cell morphology was observed by an inverted microscope and recorded by photographs. First, MTT was prepared as a 5 mg/mL reaction solution by PBS, then filtered by a 0.22 μm filter. 10% MTT reagent was prepared by H-DMEM, and then stored in the dark. After being cultured for 1 day, the cell culture medium was removed from the 24-well cell culture plate. The 24-well cell culture plate was washed twice by PBS. After the PBS was removed, 1 ml/well of 10% MTT reagent was added to the culture plate and reacted in an incubator (37° C., 5% CO2) in the dark for 4-5 hours. Purple crystal particles were produced at the bottom of culture plate after the reaction. The reactive solution was removed and 350 μl/well of DMSO solution was added. After being mixed, […] of dissolved solution was suctioned to a 96-well plate and the absorbance at 570 nm was detected by an ELISA reader. The reference wavelength was set as 650 nm. A cell standard curve can be made to reckon the cell number. The cell solution was adjusted to have a concentration of 5000, 10000, 25000, 50000, 75000, and 100000 cells/ml by H-DMEM containing 10% FBS then seeded into a 24-well plate, respectively. After 1 day, after the cells were adhered, an MTT cell viability analysis was conducted. Absorbance and cell numbers were used to make a standard curve, such that the cell number could be reckoned from the absorbance. A growth curve of MG-63 cells was made first, and then the cell growth rate could be obtained by dividing the cell viability by that of the control group which was detected by the MTT assay. The result shown in FIG. 9A can be obtained by converting the data from ELISA to a cell number according to the cell growth curve. In FIG. 9A, it is observed that the cell number of MG-63 co-cultured with VK2 is apparently lower than that of the control group. Moreover, the effect of cell growth inhibition becomes obvious with the increasing concentration of VK2. […]

For experiment [2], the system named is MG-63 cells. The experiment in a line: Alkaline phosphatase (ALP) activity test in co-cultured MG-63 cells. As to the method:
0.0001 g, 0.0005 g, 0.005 g, and 0.05 g of VK2 was fine weighed and sterilized by UV light in a sterile hood overnight, then added into 50 ml centrifuge tubes. 50 ml of H-DMEM containing 10% FBS was then added to prepare cell culture medium with different VK2 concentrations: 0 mg/mL, 0.002 mg/mL, 0.01 mg/mL, 0.1 mg/mL, and 1 mg/mL.
H-DMEM containing 10% FBS was used to adjust the concentration of MG-63 cell solution to 1×10^4 cells/ml. 1 ml/well of cell solution was seeded to a 24-well plate and incubated in an incubator for 1 day to make cells adhere. Then, the culture medium was removed, 1 ml/well of cell culture medium with different VK2 concentration were added respectively and incubated for 1, 3, and 7 days. Cell viability analysis (MTT) and alkaline phosphatase activity assay (ALP) were conducted. Cell morphology was observed by an inverted microscope and recorded in photographs. […]
The measurement of ALP is described below. After being cultured for 1 day, the cell culture medium was removed from the 24-well cell culture plate. Then, the 24-well cell culture plate was washed twice by PBS. After the PBS was removed, 200 μl/well of ALP extraction reagent pNPP65 (p-Nitrophenylphosphate) was added to the 24-well culture plate and reacted in an incubator (37° C., 5% CO2) in the dark for 30 minutes. Then, 50 μl of 1N sodium hydroxide was added to stop the reaction. 250 μl/well of supernatant was suctioned to a 96-well plate to detect the OD value at 405 nm by an ELISA reader. Activity of alkaline phosphatase (ALP) can be calculated by the formula below: […]
In this formula, A is the absorbance of a sample at 405 nm; Vt is the total reaction volume, 0.25 ml; Vs is the sample volume, 0.05 ml; t is the reaction time after adding pNPP65 (p-Nitrophenylphosphate), 30 minutes; c is mmol extinction coefficient of pNPP65 (p-Nitrophenylphosphate), 18.6 mM^−1 cm^−1; 1 is the optical path of the cuvette, 1 cm; 1000 is to convert the U/ml to U/l.

The test system of experiment [3] is MG-63 cells. The experiment is described as above. The following applies: 0.02 mg/mL.

Turning to vitamin K2 [VK2], the cell number in experiment [1] (0.002 mg/mL of VK2, day 1) was 4.1±0.1 ×10^4 cells; in experiment [1] (0.002 mg/mL of VK2, day 3), 6.6±0.1 ×10^4 cells; in experiment [1] (0.002 mg/mL of VK2, day 7), 14.7±0.1 ×10^4 cells; in experiment [1] (1 mg/mL of VK2, day 1), 2.0±0.0 ×10^4 cells; in experiment [1] (1 mg/mL of VK2, day 3) it was 5.0±0.1 ×10^4 cells; in experiment [1] (1 mg/mL of VK2, day 7) it was 2.1±0.1 ×10^4 cells. Besides, the “effect on cell proliferation” value in experiment [1] (MG-63 co-cultured with VK2, 1, 3, 7 days) is “inhibits cell proliferation”. For the same substance, the “ALP value compared with control group” value in experiment [2] (0.002 mg/mL of VK2) is “higher than that of the control group”. For the same substance, the “ALP activity of a single cell” value was determined as 96.7±1.1 U/L-30 min-10^4 cells in experiment [2] (0.002 mg/mL of VK2, day 1); 62.4±0.9 U/L-30 min-10^4 cells in experiment [2] (0.002 mg/mL of VK2, day 3); 46.4±0.4 U/L-30 min-10^4 cells in experiment [2] (0.01 mg/mL of VK2, day 1); 19.8±0.1 U/L-30 min-10^4 cells in experiment [2] (0.01 mg/mL of VK2, day 3); 8.2±0.0 U/L-30 min-10^4 cells in experiment [2] (0.01 mg/mL of VK2, day 7); 70.4±1.7 U/L-30 min-10^4 cells in experiment [2] (1.0 mg/mL of VK2, day 7). Further, the ALP value in experiment [2] (0.002 mg/mL of VK2, day 1) was 399.9±3.3 U/L-30 min; in experiment [2] (0.002 mg/mL of VK2, day 3), 410.7±2.7 U/L-30 min; in experiment [2] (0.002 mg/mL of VK2, day 7), 377.4±1.6 U/L-30 min; in experiment [2] (0.01 mg/mL of VK2, day 1), 111.0±0.7 U/L-30 min; in experiment [2] (0.1 mg/mL of VK2, day 3), 112.2±0.3 U/L-30 min; in experiment [2] (0.1 mg/mL of VK2, day 7), 100.6±0.0 U/L-30 min. Moreover, in experiment [3], the “effect on ALP activity of cells” value is listed as “enhance the ALP activity of cells”.

The values are drawn from US20140314867A1, “VITAMIN K2 MICROSPHERES” (Medical and Pharmaceutical Industry Technology and …, priority 2013, published 2014).
